{
  "source": "patent US20080107619A1",
  "about": "“Carbohydrate based cellulase inhibitors as feeding stimulants in termites” (University of Florida Research Foundation, Inc., priority 2006, published 2008)",
  "key": {"[1]": {"test_system": "exoglucanase", "test": "Post-feeding inhibition of exoglucanase activity in whole-body homogenates", "assay_type": "in vivo, R. flavipes", "details": "after 24 days feeding at 5 mM and above", "procedure": "(§1) Whole body homogenates were used for optimization and post-feeding inhibition studies. Here, 10-15 termite workers were homogenized in 1 to 1.5 ml ice-cold homogenization buffer with a Teflon-glass (Potter-Elvehjem) homogenizer powered by a motorized electric stirrer (Fisher Scientific). After homogenization, both gut region and whole-body preparations were centrifuged at 15,000× g and 4° C. for 15 min. The resulting supernatants from the different gut regions were used directly for subsequent enzyme assays. Supernatants from whole-body homogenates were passed through glass wool to remove excess lipids before proceeding with cellulase activity assays.\n(§2) Cellulase activity assays were adapted from Han et al. in “Characterization of a bifunctional cellulase and its structural gene,” J. Biol. Chem. 270 (1995) 26012-26019, with optimization for a 96-well microplate format. […] Color was allowed to develop on ice for 15 min before measuring absorbance at 540 nm relative to a glucose standard curve.\n(§3) The hydrolysis product of both the pNPC and pNPG substrates is p-nitrophenol, which is yellow in color and permits for direct quantification of activity in a kinetic assay. pNPC and pNPG assays were initially incubated at 32° C. for 20 min before measuring the release of the product, p-nitrophenol, at 420 nm. […]"}, "[2]": {"target": "T1, 6A cellobiohydrolase (exoglucanase) (Trichoderma reesei, UniProt P07987)", "T1 sequence (P07987 25-471)": "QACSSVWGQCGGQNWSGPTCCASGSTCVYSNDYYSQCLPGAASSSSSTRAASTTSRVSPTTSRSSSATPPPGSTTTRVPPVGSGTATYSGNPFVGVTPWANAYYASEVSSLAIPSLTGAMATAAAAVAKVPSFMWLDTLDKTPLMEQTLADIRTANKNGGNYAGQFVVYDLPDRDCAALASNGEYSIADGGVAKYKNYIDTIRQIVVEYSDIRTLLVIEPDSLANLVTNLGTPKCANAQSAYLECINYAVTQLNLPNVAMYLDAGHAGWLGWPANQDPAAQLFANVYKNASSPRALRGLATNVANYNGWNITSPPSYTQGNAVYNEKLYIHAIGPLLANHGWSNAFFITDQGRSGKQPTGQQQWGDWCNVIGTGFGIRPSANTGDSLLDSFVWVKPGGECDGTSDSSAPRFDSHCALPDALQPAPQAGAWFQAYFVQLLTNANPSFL", "details": "non-competitive inhibition; Vonhoff et al.; read-out: I50; cited from earlier work"}, "[3]": {"test_system": "endoglucanase", "test": "Post-feeding inhibition of endoglucanase activity in whole-body homogenates", "assay_type": "in vivo, R. flavipes", "details": "after 24 days feeding, various concentrations; FIGS. 11A-11C", "procedure": "as §1\nCellulase activity assays were adapted from Han et al. in “Characterization of a bifunctional cellulase and its structural gene,” J. Biol. Chem. 270 (1995) 26012-26019, with optimization for a 96-well microplate format. The model substrates used to test for endoglucanase, exoglucanase and β-glucosidase activities were CMC (FIG. 1A), pNPC (FIG. 1B) and pNPG (FIG. 1C), respectively. The substrate concentration used for CMC was 0.5% (w/v), while pNPG and pNPC were used at 4 mM. All substrates were diluted in homogenization buffer. […] Color was allowed to develop on ice for 15 min before measuring absorbance at 540 nm relative to a glucose standard curve. […]"}, "[4]": {"test_system": "β-glucosidase", "test": "Post-feeding inhibition of β-glucosidase activity in whole-body homogenates", "assay_type": "in vivo, R. flavipes", "details": "after 24 days feeding at 25 mM and above", "procedure": "as §1, §2, §3"}},
  "data": [
    {"smiles": "OC[C@@H]1[C@@H](O[C@@H]2O[C@H](CO)[C@@H](O)[C@H](O)[C@H]2O)[C@H](O)[C@@H](O)c2nccn21", "note": "[CBI, cellobioimidazole]", "values": [
      {"measurement": "Exoglucanase activity, maximal reduction relative to controls", "setting": "[1]", "result": "~75", "unit": "%"},
      {"measurement": "IC50", "setting": "[2]", "result": 1000, "unit": "nM"},
      {"measurement": "endoglucanase activity after feeding, reduction relative to controls", "setting": "[3]", "result": "significant"},
      {"measurement": "β-glucosidase activity, maximal reduction relative to controls", "setting": "[4]", "result": "~90", "unit": "%"}
    ]}
  ]
}
